The values below come from US20150004134A1, “TREATMENT OF CANCER WITH HETEROCYCLIC INHIBITORS OF GLUTAMINASE” (Calithera Biosciences, Inc., priority 2012, published 2015).

Some results are limits rather than exact numbers.

For the first assay, the system named is P493-6 (myc "on") cells. Put plainly: Cell Proliferation Assay. The class given is cell-based. As to conditions: P493-6, 72 h, read-out: Cell prolif P493 72 h IC50, P493-6 cells, 72 h. The method in brief:
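Read-out: either Cell Titer Glo or Guava Viacount flow analysis after 72 h compound treatment of myc-on P493-6 cells (10,000/well, RPMI with 10% FBS) at 37 °C. DMSO held at 0.5% final.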
Take `CNCc1cccc(CC(=O)Nc2nnc(CCCCc3nnc(NC(=O)Cc4ccccc4)s3)s2)c1` [Compound 393]: the IC50 was 900 nM.

For the compound `CN(C)Cc1cccc(CC(=O)Nc2nnc(CCCCc3nnc(NC(=O)Cc4ccccc4)s3)s2)c1` [Compound 394], the 50% inhibitory concentration (IC50) is 1200 nM.

In the case of `CN(Cc1cccc(CC(=O)Nc2nnc(CCCCc3ccc(NC(=O)Cc4ccccc4)nn3)s2)c1)C(=O)OC(C)(C)C` [Compound 396], the IC50 was 5 nM.

For `CC(C)(C)OC(=O)Nc1cccc(CC(=O)Nc2nnc(CCCCc3ccc(NC(=O)Cc4ccccc4)nn3)s2)c1` [Compound 399], the IC50 came out at 26 nM.

For the compound `O=C(Cc1ccccc1)Nc1ccc(CCCCc2nnc(NC(=O)NC3CCCC3)s2)nn1` [Compound 403], the IC50 came to 120 nM.

As to `O=C(Cc1ccccc1)Nc1nnc(CCCCc2ccc(NC(=O)NCc3ccccc3)nn2)s1` [Compound 405], the IC50 is 670 nM.

On to `NCc1ccc(CC(=O)Nc2nnc(CCCCc3ccc(NC(=O)Cc4ccccc4)nn3)s2)cc1` [Compound 407], for which the IC50 was found to be 44 nM.

Regarding `Nc1cccc(CC(=O)Nc2nnc(CCCCc3ccc(NC(=O)Cc4ccccc4)nn3)s2)c1` [Compound 409], the IC50 came out at 37 nM.

For the compound `Nc1ccc(CCCCc2nnc(NC(=O)C(O)c3cccc(Cl)c3)s2)nn1` (stereo not drawn) [Compound 411], the IC50 is 740 nM.

On to `O=C(Cc1ccccc1)Nc1ccc(CCCCc2nnc(NC(=O)C(O)c3cccc(Br)c3)s2)nn1` (stereo not drawn) [Compound 415], for which the IC50 was 18 nM.

For `Cc1cccc(CNC(=O)Nc2nnc(CCCCc3nnc(NC(=O)Cc4ccccc4)s3)s2)c1` [Compound 417], the IC50 was 320 nM.

For the compound `CCNC(=O)Nc1ccc(CCCCc2nnc(NC(=O)Cc3cccc(CNC(=O)OC(C)(C)C)c3)s2)nn1` [Compound 420], the IC50 amounted to 70 nM.

For the compound `CC(C)(C)OC(=O)NCc1cccc(CC(=O)Nc2nnc(CCCCc3ccc(NC(=O)C(O)c4cccc(Cl)c4)nn3)s2)c1` (stereo not drawn) [Compound 422], the IC50 came to 6 nM.

In the case of `CC(=O)Nc1ccc(CC(=O)Nc2nnc(CCCCc3ccc(NC(=O)Cc4ccccc4)nn3)s2)cc1` [Compound 426], the IC50 is 33 nM.

As for `O=C(Cc1ccccc1)Nc1ccc(CCCCc2nnc(NC(=O)Cc3cccc(OCCO)c3)s2)nn1` [Compound 427], the IC50 was found to be 27 nM.

For the compound `COCCOc1cccc(CC(=O)Nc2nnc(CCCCc3ccc(NC(=O)Cc4ccccc4)nn3)s2)c1` [Compound 428], the IC50 was determined as 19 nM.

Consider `O=C(Cc1ccccc1)Nc1ccc(CCCCc2nnc(NC(=O)Cc3cccc(CNC(=O)c4ccccc4)c3)s2)nn1` [Compound 432], for which the IC50 amounted to 4 nM.

Take `O=C(Cc1ccccc1)NCc1cccc(CC(=O)Nc2nnc(CCCCc3ccc(NC(=O)Cc4ccccc4)nn3)s2)c1` [Compound 435]: the IC50 is 6 nM.

Turning to `NCc1cccc(CC(=O)Nc2nnc(CCCCc3nnc(NC(=O)Cc4ccccc4)s3)s2)c1` [Compound 437], the IC50 was determined as 72 nM.

On to `CC(C)NC(=O)Nc1nnc(CCCCc2nnc(NC(=O)Cc3ccccc3)s2)s1` [Compound 438], for which the IC50 amounted to 880 nM.

On to `O=C(CN1CCOCC1)NCc1ccc(CC(=O)Nc2nnc(CCCCc3ccc(NC(=O)Cc4ccccc4)nn3)s2)cc1` [Compound 442], for which the IC50 amounted to 25 nM.

Take `O=C(Nc1ccc(CCCCc2nnc(NC(=O)C(O)c3cccc(Cl)c3)s2)nn1)C(O)c1cccc(Cl)c1` (stereo not drawn) [Compound 446]: the IC50 worked out at 150 nM.

For `O=C(Cc1cccc(Cl)c1)Nc1ccc(CCCCc2nnc(NC(=O)C(O)c3cccc(Cl)c3)s2)nn1` (stereo not drawn) [Compound 448], the IC50 turned out to be 51 nM.

Regarding `CC(=O)NCCc1cccc(CC(=O)Nc2nnc(CCCCc3ccc(NC(=O)Cc4ccccc4)nn3)s2)c1` [Compound 454], the IC50 came to 130 nM.

In the case of `O=C(Cc1ccccc1)Nc1ccc(CCCCc2nnc(NC(=O)Cc3cccc(CNC(=O)C(F)(F)F)c3)s2)nn1` [Compound 458], the IC50 worked out at 13 nM.

Staying with this assay, now noted: P493-6, 72 h, read-out: Cell prolif P493 72 h IC50, P493 cells, 72 h.
With `C[C@@H](O)C(=O)Nc1nnc(CCCCc2nnc(NC(=O)Cc3ccccc3)s2)s1` [Compound 322], the half-maximal inhibitory concentration (IC50) was determined as 3000 nM.

In the case of `O=C(Cc1cccc2[nH]ccc12)Nc1nnc(CCCCc2nnc(NC(=O)Cc3cccc4[nH]ccc34)s2)s1` [Compound 323], the IC50 turned out to be 200 nM.

Regarding `CC(C)(C)OC(=O)Nc1cccc(CC(=O)Nc2nnc(CCCCc3nnc(NC(=O)Cc4cccc(NC(=O)OC(C)(C)C)c4)s3)s2)c1` [Compound 327], the IC50 came out at 150 nM.

Take `O=C(CCN1CCOCC1)OC(C(=O)Nc1nnc(CCCCc2nnc(NC(=O)C(OC(=O)CCN3CCOCC3)c3cccc(Cl)c3)s2)s1)c1cccc(Cl)c1` (stereo not drawn) [Compound 332]: the IC50 worked out at 87 nM.

As to `O=C(Cc1ccccc1)Nc1nnc(CCCCc2nnc(NC(=O)Cc3ccccc3CO)s2)s1` [Compound 333], the IC50 was 1600 nM.

Consider `O=C(Cc1ccccc1)Nc1ccc(CCCCc2nnc(NC(=O)C(OC(=O)CCN3CCOCC3)c3ccccc3)s2)nn1` (stereo not drawn) [Compound 334], for which the IC50 turned out to be 30 nM.

`O=C(Cc1ccccc1)Nc1ccc(CCCCc2nnc(NC(=O)Cc3cccc(Cl)c3)s2)nn1` [Compound 335]: the IC50 is 50 nM.

For the compound `NCc1cccc(CC(=O)Nc2nnc(CCCCc3ccc(NC(=O)Cc4ccccc4)nn3)s2)c1` [Compound 341], the IC50 worked out at 39 nM.

As to `Nc1nnc(CCCCc2ccc(NC(=O)Cc3ccccc3)nn2)s1` [Compound 342], the IC50 is 2700 nM.

As to `COc1ccc(Cl)c(CC(=O)Nc2nnc(CCCCc3nnc(NC(=O)Cc4ccccc4)s3)s2)c1F` [Compound 343], the IC50 came out at 250 nM.

For `COc1c(F)ccc(CC(=O)Nc2nnc(CCCCc3nnc(NC(=O)Cc4ccccc4)s3)s2)c1F` [Compound 344], the IC50 was 88 nM.

Take `O=C(Cc1ccccc1)Nc1nnc(CCCCc2nnc(NC(=O)Cc3c(Cl)ccc(O)c3F)s2)s1` [Compound 345]: the IC50 is 240 nM.

With `O=C(Cc1ccccc1)Nc1nnc(CCCCc2nnc(NC(=O)Cc3ccc(F)c(O)c3F)s2)s1` [Compound 346], the IC50 stood at 87 nM.

Consider `O=C(Cc1ccccc1)Nc1nnc(CCSCCc2nnc(NC(=O)Cc3cccnc3)s2)s1` [Compound 347], for which the IC50 is 710 nM.

Take `Nc1ccc(CCCCc2nnc(NC(=O)Cc3ccccc3)s2)nn1` [Compound 348, N-(5-(4-(6-aminopyridazin-3-yl)butyl)-1,3,4-thiadiazol-2-yl)-2-phenylacetamide]: the IC50 is 1700 nM.

Take `O=C(Cc1ccccc1)Nc1ccc(CCCCc2nnc(NC(=O)[C@@H](O)c3ccccc3)s2)nn1` [Compound 350]: the IC50 turned out to be 29 nM.

For the compound `O=C(Cc1ccccc1)Nc1ccc(CCCCc2nnc(NC(=O)NCc3ccccc3)s2)nn1` [Compound 352], the IC50 was found to be 130 nM.

Consider `O=C(CCN1CCOCC1)OC(C(=O)Nc1nnc(CCCCc2nnc(NC(=O)C(O)c3cccc(Cl)c3)s2)s1)c1cccc(Cl)c1` (stereo not drawn) [Compound 358], for which the IC50 was found to be 110 nM.

Regarding `O=C(Cc1ccccc1)Nc1nnc(CCSCCc2nnc(NC(=O)Cc3ccccn3)s2)s1` [Compound 359], the IC50 was 910 nM.

For the compound `O=C(Cc1ccncc1)Nc1nnc(CCSCCc2nnc(NC(=O)Cc3ccncc3)s2)s1` [Compound 361], the IC50 was more than 20000 nM.

As to `O=C(Cc1cccc(Cn2cccn2)c1)Nc1nnc(CCCCc2nnc(NC(=O)Cc3cccc(Cn4cccn4)c3)s2)s1` [Compound 362], the IC50 was found to be 54 nM.

On to `O=C(Cc1cccc(-n2ccnc2)c1)Nc1nnc(CCCCc2nnc(NC(=O)Cc3cccc(-n4ccnc4)c3)s2)s1` [Compound 363], for which the IC50 was more than 20000 nM.

Turning to `CC(C)(C)OC(=O)NCc1cccc(CC(=O)Nc2ccc(CCCCc3nnc(NC(=O)Cc4ccccc4)s3)nn2)c1` [Compound 367], the IC50 turned out to be 6 nM.

In the case of `CC(C)COC(=O)Nc1nnc(CCCCc2nnc(NC(=O)Cc3ccccc3)s2)s1` [Compound 370], the IC50 amounted to 700 nM.

With `O=C(Cc1ccccc1)Nc1nnc(CCSCc2nnc(NC(=O)Cc3cccc(Cl)c3)s2)s1` [Compound 372], the IC50 is 150 nM.

Regarding `O=C(Cc1ccccc1)Nc1nnc(CCSCc2nnc(NC(=O)Cc3ccccn3)s2)s1` [Compound 373], the IC50 was determined as 280 nM.

Consider `O=C(Cc1ccccc1)Nc1nnc(CCCCc2nnc(NC(=O)OCc3ccccc3)s2)s1` [Compound 374], for which the IC50 was 470 nM.

Take `O=C(Cc1ccccc1)Nc1nnc(CCSCc2nnc(NC(=O)C(O)c3cccc(Cl)c3)s2)s1` (stereo not drawn) [Compound 376]: the 50% inhibitory concentration (IC50) amounted to 91 nM.

As to `O=C(Cc1ccccc1)Nc1nnc(CCSCc2nnc(NC(=O)[C@@H](O)c3ccccc3)s2)s1` [Compound 377], the IC50 was 100 nM.

As for `O=C(Cc1ccccc1)Nc1nnc(CCSCc2nnc(NC(=O)Cc3cccc(OCCN4CCOCC4)c3)s2)s1` [Compound 378], the IC50 amounted to 90 nM.

On to `COC(=O)Nc1nnc(CCCCc2nnc(NC(=O)Cc3ccccc3)s2)s1` [Compound 387], for which the IC50 amounted to 2300 nM.

On to `CCCCOC(=O)Nc1nnc(CCCCc2nnc(NC(=O)Cc3ccccc3)s2)s1` [Compound 388], for which the IC50 was determined as 750 nM.

Turning to `O=C(Cc1ccccc1)Nc1ccc(CCCCc2nnc(NC(=O)C(OC(=O)CCN3CCOCC3)c3cccc(Cl)c3)s2)nn1` (stereo not drawn) [Compound 389], the IC50 was 32 nM.

On to `O=C(Cc1ccccc1)Nc1nnc(CCCCc2nnc(NC(=O)Cc3cccc(OCCN4CCOCC4)c3)s2)s1` [Compound 390], for which the IC50 was determined as 160 nM.

`CN(Cc1cccc(CC(=O)Nc2nnc(CCCCc3nnc(NC(=O)Cc4ccccc4)s3)s2)c1)C(=O)OC(C)(C)C` [Compound 391]: the IC50 turned out to be 27 nM.

Take `O=C(Cc1ccccc1)Nc1nnc(CCCCc2nnc(NC(=O)Cc3cccc(Cn4cccn4)c3)s2)s1` [Compound 392]: the IC50 stood at 72 nM.

Staying with this assay, now noted: P493-6, read-out: Cell prolif P493 72 h IC50; P493 cells, 72 h.
`O=C(Cc1ccccc1)Nc1nnc(CCCCc2nnc(NC(=O)Oc3ccccc3)s2)s1` [Compound 371]: the IC50 was found to be 5200 nM.

The same assay, now with this note: read-out: Cell prolif P493 72 h IC50; P493-6 cells, 72 h.
For `CCCC(=O)OC(C(=O)Nc1nnc(CCCCc2ccc(NC(=O)Cc3ccccc3)nn2)s1)c1cccc(Cl)c1` (stereo not drawn) [Compound 439], the IC50 came out at 56 nM.
